Patent US20170246206A1, “Calcium Formate for Use as a Dietary Supplement” (Wisconsin Alumni Research Foundation, priority 1999, published 2017)
Where two headings read alike, the source gives them in different places.

How the values were obtained:
[1] = From the text: Twenty 15-day-old weanling rats from Holzmann Company were placed on a an adequate synthetic diet called “Diet 11” (Suda, T., et al., J. Nutr. 100:1049-1052, 1970). This diet is supplemented with vitamins A, D, E and K as described in that paper. Therefore, these are vitamin D-sufficient animals.
The animals were then placed on a basal diet that contains 0.02% calcium, i.e. an extremely low calcium diet. These animals served as controls. Another group were placed on the same diet containing calcium formate, providing calcium at 0.25% of the diet. Another group was supplied calcium formate at 0.47% calcium in the diet, and another group was provided 0.47% calcium in the form of calcium carbonate. Growth of the animals reflects the ability of the animals to utilize calcium. […] 57:449-468 (1955).

Remark: listed apart in the source
[2] = 1% Ca formate in diet, 1 week on diet
[3] = 1% Ca formate in diet, 2 weeks on diet
[4] = 2% Ca formate in diet, 1 week on diet
[5] = 2% Ca formate in diet, 2 weeks on diet
[6] = 3% Ca formate in diet, 1 week on diet
[7] = 3% Ca formate in diet, 2 weeks on diet

O=C([O-])[O-].[Ca+2] [Calcium Carbonate, calcium carbonate, reference compound]
Average Body Weight ± S.E.M for 5 Rats ([1]; 0.47% Ca in diet, day 7): 48.6 ± 4.9 Grams
Average Body Weight ± S.E.M for 5 Rats ([1]; 0.47% Ca in diet, day 14): 80.4 ± 10.4 Grams
Average Body Weight ± S.E.M for 5 Rats ([1]; 0.47% Ca in diet, day 21): 126.2 ± 11 Grams

O=C[O-].O=C[O-].[Ca+2] [Calcium Formate, calcium formate]
Serum (mean ± SEM) [2]: 3.25 ± .31 mg %
Weight [2]: 229 ± 5.5
Serum Ca (mean ± SEM) [3]: 14.0 ± .51 mg %
Weight [3]: 211 ± 3.8
Serum (mean ± SEM) [4]: 2.50 ± .32 mg %
Weight [4]: 211 ± 6.3
Serum (mean ± SEM) [5]: 2.7 ± .24 mg %
Serum Ca (mean ± SEM) [5]: 12.8 ± .94 mg %
Weight [5]: 198 ± 5.2
Difference in serum phosphorus between dose levels (2% vs 3% calcium formate in diet): little difference in serum phosphorus
Serum (mean ± SEM) [6]: 2.5 ± .20 mg %
Weight [6]: 194 ± 6.5
Serum (mean ± SEM) [7]: 2.9 ± 0.8 mg %
Serum Ca (mean ± SEM) [7]: 12.9 ± 1.3 mg %
Weight [7]: 150 ± 8.0
Serum phosphorus compared with control rats (all rats supplied with calcium formate (1-3% of diet)): less serum phosphorus than control rats
Average Body Weight ± S.E.M for 5 Rats ([1]; 0.25% Ca in diet, day 7): 54.3 ± 4.0 Grams
Average Body Weight ± S.E.M for 5 Rats ([1]; 0.25% Ca in diet, day 14): 84.6 ± 5.5 Grams
Average Body Weight ± S.E.M for 5 Rats ([1]; 0.25% Ca in diet, day 21): 131.0 ± 5.7 Grams
Growth in comparison to other treatment groups ([1]; 0.25% calcium as the formate): slightly better growth
Average Body Weight ± S.E.M for 5 Rats ([1]; 0.47% Ca in diet, day 7): 51.0 ± 10.6 Grams
Average Body Weight ± S.E.M for 5 Rats ([1]; 0.47% Ca in diet, day 14): 78.0 ± 19^ Grams
Average Body Weight ± S.E.M for 5 Rats ([1]; 0.47% Ca in diet, day 21): 127 ± 11 Grams
Ability to supply calcium to experimental rats ([1]; compared with calcium carbonate): at least equal to calcium carbonate
